{
  "source": "patent US9910034B2",
  "about": "“Methods and compositions for phototransfer” (AmberGen, Inc., priority 2007, dated 2018)",
  "target": "T1, protein kinase Cα (PKCα) (Homo sapiens, UniProt P17252)",
  "T1 construct": "isolate and photo-release endogenous PKCα from the undiluted detergent fractionated HeLa cell extracts; endogenous in cells; host or cells: HeLa cells (ATCC)",
  "assay": "PMA mediated PKCα sub-cellular translocation measured by kinase activity after isolation with photocleavable antibodies",
  "type": "cell-based",
  "conditions": "cultured HeLa cells stimulated with 200 nM PMA for 5 min; detergent fractionated; based on kinase activity of photocleavable antibody isolated protein; n=4",
  "protocol": "FIG. 20. Phorbol ester (PMA) mediated protein kinase Cα (PKCα) sub-cellular translocation as measured by functional activity following isolation with photocleavable antibodies. Cultured HeLa cells were stimulated with 200 nM PMA for 5 min and detergent fractionated into the cytosol and membrane compartments prior to isolation and purification with the photocleavable antibodies.\nCultured HeLa cells (ATCC; Manassas, Va.) were stimulated for 5 min with 200 nM Phorbol-12-Myristate-13-Acetate (PMA; EMD Biosciences, Inc., San Diego, Calif.) and subsequently detergent fractionated into sub-cellular compartments according to reported procedures [Ramsby et al. (1994) Electrophoresis 15, 265-277; Ramsby & Makowski. (1999) Methods Mol Biol 112, 53-66; Chiang et al. (2000) J Biochem Biophys Methods 46, 53-68]. PMA is a potent activator of PKCα and is well known to cause translocation of the kinase from the cytosolic to the membrane sub-cellular compartments [Ross & Joyner. (1997) Endothelium 5, 321-332; Bazan & Rapoport. (1996) J Pharmacol Toxicol Methods 36, 87-95; Yazlovitskaya Melnykovych. (1995) Cancer Lett 88, 179-183]. […]",
  "data": [
    {"compound": "CCCCCCCCCCCCCC(=O)O[C@@H]1[C@@H](C)[C@@]2(O)[C@@H](C=C(CO)C[C@]3(O)C(=O)C(C)=C[C@@H]23)[C@@H]2C(C)(C)[C@]12OC(C)=O", "note": "[PMA, Phorbol-12-Myristate-13-Acetate]", "values": [
      {"measurement": "relative sub-cellular distribution of PKCα, cytosol", "result": "16±4", "unit": "%"},
      {"measurement": "relative sub-cellular distribution of PKCα, membrane", "result": "84±3", "unit": "%"}
    ]}
  ]
}
